Results: PubChem BioAssay AID248 (DTP/NCI, 2004)
“And” between values parts separate entries of the source, which are not always exact repeats. Equal values may be shown once. Inconclusive results and toxic doses are left out. No stated cut-off is given here; in the data, active means T/C of 150% or more; inactive means T/C below 125%.

Tested on: L1210 leukemia ip in BDF1 mice, survival T/C
Experiment: NCI In Vivo Anticancer Drug Screen. Data for tumor model L1210 Leukemia (intraperitoneal) in B6D2F1 (BDF1) mice
Details: higher = longer survival
Method in brief: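 Transplantable tumor model; survival measured in treated vs vehicle control mice. Value = treated/control.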

[1] = endpoint: mean survival time, dose: 100.0 mg/kg/injection, schedule: Q01DX009 (ip), vehicle: Klucel (hydroxypropylcellulose) (HPC)
[2] = endpoint: mean survival time, dose: 200.0 mg/kg/injection, schedule: Q01DX009 (ip), vehicle: Klucel (hydroxypropylcellulose) (HPC)
[3] = endpoint: mean survival time, dose: 400.0 mg/kg/injection, schedule: Q01DX009 (ip), vehicle: Klucel (hydroxypropylcellulose) (HPC)
[4] = endpoint: mean survival time, dose: 50.0 mg/kg/injection, schedule: Q01DX001 (ip), vehicle: saline
[5] = endpoint: mean survival time, dose: 100.0 mg/kg/injection, schedule: Q01DX001 (ip), vehicle: saline
[6] = endpoint: mean survival time, dose: 200.0 mg/kg/injection, schedule: Q01DX001 (ip), vehicle: saline
[7] = endpoint: mean survival time, dose: 400.0 mg/kg/injection, schedule: Q01DX001 (ip), vehicle: saline
[8] = endpoint: mean survival time, dose: 100.0 mg/kg/injection, schedule: Q01DX009 (ip), vehicle: saline with Tween-80
[9] = endpoint: mean survival time, dose: 200.0 mg/kg/injection, schedule: Q01DX009 (ip), vehicle: saline with Tween-80
[10] = endpoint: mean survival time, dose: 100.0 mg/kg/injection, schedule: Q04DX002 (ip), vehicle: saline with Tween-80
[11] = endpoint: mean survival time, dose: 200.0 mg/kg/injection, schedule: Q04DX002 (ip), vehicle: saline with Tween-80
[12] = endpoint: mean survival time, dose: 400.0 mg/kg/injection, schedule: Q04DX002 (ip), vehicle: saline with Tween-80

Measured: T/C

O=C(Nc1ccc(Cl)cc1)Nc1ncc(Cl)s1
inactive: [1] 94 % of control | [2] 96 % of control | [3] 89 % of control

COC(c1ccccc1)(c1ccccc1)N(C)C
inactive: [4] 97 % of control | [5] 105 % of control | [6] 97 % of control | [7] 94 % of control

O=C(NCCCCC(NC(=O)OCc1ccccc1)C(=O)NCCCCCCNCCCCCCNC(=O)C(CCCCNC(=O)OCc1ccccc1)NC(=O)OCc1ccccc1)OCc1ccccc1 (stereo not drawn)
inactive: [5] 94 % of control | [6] 92 % of control | [7] 96 % of control

CC(=O)Nc1ccc(OC(=O)Nc2ccccc2F)cc1
inactive: [1] 98 % of control | [2] 101 % of control | [3] 106 % of control

CN(C)CCSSCCN(C)C
inactive: [4] 102 % of control | [5] 104 % of control | [6] 96 % of control

CC(N)CCC(O)C(=O)O (stereo not drawn)
inactive: endpoint: mean survival time, dose: 100.0 mg/kg/injection, schedule: Q04DX002 (ip), vehicle: saline 95 % of control | endpoint: mean survival time, dose: 200.0 mg/kg/injection, schedule: Q04DX002 (ip), vehicle: saline 100 % of control | endpoint: mean survival time, dose: 400.0 mg/kg/injection, schedule: Q04DX002 (ip), vehicle: saline 107 % of control

CCOc1cccc(OCC)c1C
inactive: endpoint: mean survival time, dose: 100.0 mg/kg/injection, schedule: Q04DX003 (ip), vehicle: Klucel (hydroxypropylcellulose) (HPC) 97 % of control | endpoint: mean survival time, dose: 200.0 mg/kg/injection, schedule: Q04DX003 (ip), vehicle: Klucel (hydroxypropylcellulose) (HPC) 94 % of control | endpoint: mean survival time, dose: 400.0 mg/kg/injection, schedule: Q04DX003 (ip), vehicle: Klucel (hydroxypropylcellulose) (HPC) 101 % of control

C=C(C)CC/C=C/C
inactive: [4] 115 % of control | [5] 115 % of control | [6] 110 % of control

COc1ccc2c(ccc3oc([N+](=O)[O-])cc32)c1
inactive: endpoint: median survival time, dose: 12.5 mg/kg/injection, schedule: Q01DX009 (ip), vehicle: Klucel (hydroxypropylcellulose) (HPC) 100 % of control | endpoint: median survival time, dose: 25.0 mg/kg/injection, schedule: Q01DX009 (ip), vehicle: Klucel (hydroxypropylcellulose) (HPC) 95 % of control | endpoint: median survival time, dose: 50.0 mg/kg/injection, schedule: Q01DX009 (ip), vehicle: Klucel (hydroxypropylcellulose) (HPC) 101 % of control | endpoint: median survival time, dose: 100.0 mg/kg/injection, schedule: Q01DX009 (ip), vehicle: Klucel (hydroxypropylcellulose) (HPC) 108 % of control | endpoint: median survival time, dose: 200.0 mg/kg/injection, schedule: Q01DX009 (ip), vehicle: Klucel (hydroxypropylcellulose) (HPC) 106 % of control

O=C(O)C1C2CC3OCC1C3C2 (stereo not drawn)
inactive: endpoint: mean survival time, dose: 100.0 mg/kg/injection, schedule: Q04DX003 (ip), vehicle: alkali diluted with saline 104 % of control | endpoint: mean survival time, dose: 200.0 mg/kg/injection, schedule: Q04DX003 (ip), vehicle: alkali diluted with saline 98 % of control | endpoint: mean survival time, dose: 400.0 mg/kg/injection, schedule: Q04DX003 (ip), vehicle: alkali diluted with saline 93 % of control

CCCCCCCCCCCCCCCCNCC(=O)Nc1ccc(S(=O)(=O)c2ccc(NC(=O)CNCCCCCCCCCCCCCCCC)cc2)cc1
inactive: endpoint: mean survival time, dose: 4.0 mg/kg/injection, schedule: Q01DX015 (ip), vehicle: carboxymethylcellulose (CMC) 94 % of control | endpoint: mean survival time, dose: 8.0 mg/kg/injection, schedule: Q01DX015 (ip), vehicle: carboxymethylcellulose (CMC) 94 % of control | endpoint: mean survival time, dose: 16.0 mg/kg/injection, schedule: Q01DX015 (ip), vehicle: carboxymethylcellulose (CMC) 104 % of control | endpoint: mean survival time, dose: 32.0 mg/kg/injection, schedule: Q01DX015 (ip), vehicle: carboxymethylcellulose (CMC) 93 % of control and 101 % of control | endpoint: mean survival time, dose: 64.0 mg/kg/injection, schedule: Q01DX015 (ip), vehicle: carboxymethylcellulose (CMC) 117 % of control | endpoint: mean survival time, dose: 100.0 mg/kg/injection, schedule: Q01DX001 (ip), vehicle: other 89 % of control | endpoint: mean survival time, dose: 200.0 mg/kg/injection, schedule: Q01DX001 (ip), vehicle: other 100 % of control

CC(=O)[O][Hg][c]1cc(-c2ccc(N=Nc3c(S(=O)(=O)O)cc4cccc(N)c4c3O)cc2)ccc1N=Nc1c(S(=O)(=O)O)cc2cccc(N)c2c1O
inactive: endpoint: mean survival time, dose: 3.13 mg/kg/injection, schedule: Q01DX009 (ip), vehicle: saline with Tween-80 86 % of control | endpoint: mean survival time, dose: 6.25 mg/kg/injection, schedule: Q01DX009 (ip), vehicle: saline with Tween-80 86 % of control | endpoint: mean survival time, dose: 12.5 mg/kg/injection, schedule: Q01DX009 (ip), vehicle: saline with Tween-80 92 % of control

O=C(Oc1ccc(N=Cc2ccc3c(c2)OCO3)cc1)Oc1ccc(N=Cc2ccc3c(c2)OCO3)cc1
inactive: endpoint: mean survival time, dose: 100.0 mg/kg/injection, schedule: Q01DX001 (ip), vehicle: carboxymethylcellulose (CMC) 96 % of control | endpoint: mean survival time, dose: 200.0 mg/kg/injection, schedule: Q01DX001 (ip), vehicle: carboxymethylcellulose (CMC) 95 % of control | endpoint: mean survival time, dose: 400.0 mg/kg/injection, schedule: Q01DX001 (ip), vehicle: carboxymethylcellulose (CMC) 93 % of control

CC(/C=C/c1ccccc1)=C1/SC(=S)NC1=O
inactive: [5] 93 % of control | [6] 96 % of control | [7] 94 % of control

O=C1c2ccccc2C(=O)N1CNc1ccc(Oc2ccc(Cl)cc2)cc1
inactive: [8] 93 % of control | [9] 93 % of control

O=C(NC(=S)Nc1ccc(Br)cc1)c1ccc(Cl)cc1Cl
inactive: endpoint: mean survival time, dose: 100.0 mg/kg/injection, schedule: Q01DX001 (ip), vehicle: saline with Tween-80 92 % of control | [8] 97 % of control and 102 % of control | [10] 95 % of control and 90 % of control | endpoint: mean survival time, dose: 100.0 mg/kg/injection, schedule: Q04DX003 (ip), vehicle: saline with Tween-80 95 % of control | endpoint: mean survival time, dose: 200.0 mg/kg/injection, schedule: Q01DX001 (ip), vehicle: saline with Tween-80 90 % of control | [9] 97 % of control and 88 % of control | [11] 93 % of control and 101 % of control | endpoint: mean survival time, dose: 200.0 mg/kg/injection, schedule: Q04DX003 (ip), vehicle: saline with Tween-80 98 % of control | endpoint: mean survival time, dose: 400.0 mg/kg/injection, schedule: Q01DX001 (ip), vehicle: saline with Tween-80 97 % of control | endpoint: mean survival time, dose: 400.0 mg/kg/injection, schedule: Q01DX009 (ip), vehicle: saline with Tween-80 97 % of control and 90 % of control | [12] 90 % of control and 92 % of control | endpoint: mean survival time, dose: 400.0 mg/kg/injection, schedule: Q04DX003 (ip), vehicle: saline with Tween-80 93 % of control

O=C(Nc1ccccc1C(F)(F)F)c1cccc(Cl)c1
inactive: endpoint: mean survival time, dose: 50.0 mg/kg/injection, schedule: Q01DX009 (ip), vehicle: saline + alcohol 89 % of control | endpoint: mean survival time, dose: 100.0 mg/kg/injection, schedule: Q01DX009 (ip), vehicle: saline + alcohol 101 % of control | endpoint: mean survival time, dose: 200.0 mg/kg/injection, schedule: Q01DX009 (ip), vehicle: saline + alcohol 94 % of control

Cc1ccc(S(=O)(=O)Nc2ccc3ncccc3c2[N+](=O)[O-])cc1
inactive: [5] 94 % of control | [6] 93 % of control | [7] 98 % of control

CN(C(=O)c1cc([N+](=O)[O-])ccc1O)c1ccc([N+](=O)[O-])cc1
inactive: [5] 97 % of control | [6] 95 % of control | [7] 97 % of control

CC1=C(C)CC2C(=O)c3c(O)ccc(O)c3C(=O)C2C1 (stereo not drawn)
inactive: [10] 91 % of control | [11] 95 % of control | [12] 91 % of control

CC(=O)c1cc(-c2ccc(Cl)c(Cl)c2)nc2c(Cl)cc(Cl)cc12
inactive: [5] 104 % of control | [6] 103 % of control | [7] 103 % of control
